For one series, the system named is E. faecalis ATCC 29212. The experiment in a line: MIC determination. It counts as cell-based, Enterococcus faecalis. The conditions noted are these: Gram-positive E. faecalis ATCC 29212, Mueller Hinton Broth. The method, then:
(§1) Klebsiella pneumoniae (ATCC 49619), Escherichia coli (ATCC 25922), Staphylococcus aureus (ATCC 25928) and Enterococcus faecalis (ATCC 29212) strains were used as Gram-negative and Gram-positive bacterial cultures. The stock solutions of the tested compounds (dissolved in 90% (v/v) DMSO/H2O at 10 mM concentration) were diluted in 100 μL of Mueller Hinton Broth, and then two-fold serial dilutions were performed. As a starting point, 100 μM concentration of the compounds was used. Then, 10^−4 dilution of an overnight bacterial culture in 100 μL of medium was added to each well, with the exception of the medium control wells. Minimum inhibitory concentration (MIC) values of compounds were determined according to our previous work.

The next series relates to S. aureus ATCC 25928. The experiment in a line: MIC determination. The conditions noted are these: Gram-positive S. aureus ATCC 25928, Mueller Hinton Broth. The format is cell-based, Staphylococcus aureus. The method, then: as §1
Another series concerns A549. The experiment in a line: MTT cytotoxicity assay. It counts as cell-based, human. The conditions noted are these: for IC50: 24 h incubation time; for effect on cell viability (in words): up to 20 µM, 24 h. The method, then:
(§2) To test the biological effects of the Cu(II) complexes and the ligands on human cancer cells, DU-145 prostate, A549 lung, and MCF-7 breast adenocarcinoma cells, as well as the multidrug-resistant MCF-7 KCR breast cancer cells were utilized. All the cell lines were maintained in RPMI-1640 media (Biosera, Nuaille, France) complemented with 10% fetal bovine serum (FBS), 2 mM L-glutamine, 0.01% streptomycin and 0.005% penicillin, (Biosera, Nuaille, France) and were cultured under standard conditions in a 37 °C incubator at 5% CO2 and 95% humidity. The cell lines were originally obtained from ATCC.
(§3) The effect of the complexes and of their ligands alone on the viability (on the metabolic activity) of human cancer cells was assessed by MTT assay. The tested compounds were dissolved in 90% (v/v) DMSO/H2O at 10 mM concentration. Equimolar solutions of the ligand CuCl2 salt were used for the cytotoxicity assays. The metal salts without ligands were also tested. For this, 1 × 10^4 cells/well were seeded into 96-well plates and left to grow overnight. On the following day, cells were exposed to increasing concentrations of each compound (0; 2.5; 5; 10; 15; 20 µM). After a 24 h incubation, cells were washed with PBS buffer and then incubated with 0.5 mg/mL MTT (Sigma-Aldrich, St Louis, Missouri, MO, USA) for 1 h at 37 °C. The formazan crystals were solubilized in DMSO (Molar Chemicals, Halásztelek, Hungary), and the absorbance of samples was determined at 570 nm using a Synergy HTX plate reader (BioTek, Winooski, Vermont, VT, USA). Absorption corresponding to the untreated control samples was considered as 100%.

A further series concerns DU-145. The experiment in a line: MTT cytotoxicity assay. The format is cell-based, human. The conditions noted are these: DU-145, MTT; for IC50: 24 h incubation time; for effect on cell viability (in words): up to 20 µM, 24 h. The method, then: as §2, §3
In another series the test system is MCF-7 KCR. The experiment in a line: MTT cytotoxicity assay. The format is cell-based, human. Conditions: for effect on cell viability (in words): up to 20 µM, 24 h. The method, then: as §2, §3
A further series concerns MCF-7. The experiment in a line: MTT cytotoxicity assay. The format is cell-based, human. Conditions: MCF-7, MTT; for IC50: 24 h incubation time; for effect on cell viability (in words): up to 20 µM, 24 h. The method, then:
as §2, §3

In series [1] the test system is A549, MCF-7, MCF-7 KCR and DU-145 cells. The experiment in a line: γH2AX immunostaining (DNA double-strand breaks). The format is cell-based, human. The conditions noted are these: 20 µM, 3 h. The method, then: In order to determine the degree of DNA damage induced by the treatments, DNA double-strand breaks were visualized by γH2AX immunostaining. For this, 1 × 10^5 cells/well were seeded onto coverslips in 24-well plates. […] Then, cells were fixed with 4% formaldehyde (Molar Chemicals, Halásztelek, Hungary), permeabilized with 0.3% Triton-X-100 (Calbiochem, Merck Millipore, Darmstadt, Germany) and were blocked using 5% bovine serum albumin (BSA) (Sigma-Aldrich, St. Louis, MO, USA). Then, the samples were incubated with anti-γH2AX antibody (Thermo Fisher Scientific, Waltham, MA, USA) in 1:300 dilution followed by Alexa 488 fluorophore-conjugated goat anti-mouse secondary antibody (Abcam, Cambridge, UK) in 1:600 dilution. The fluorescence intensity of the stained samples was detected by an Olympus FV10i confocal microscope.

A short description of a further series: physchem. It counts as physicochemical. The method, then: (§4) An Orion 710A pH-meter equipped with a Metrohm combined electrode (type 6.0234.100) and a Metrohm 665 Dosimat burette were used for the UV–vis titrations at 25.0 ± 0.1 °C. Ionic strength of 0.10 M (KCl) was used to keep the activity coefficients constant. The titrations were performed with carbonate-free KOH solution of known concentration (0.10 M) with 30% (v/v) DMSO content. […] The average water ionization constant (pKw) is 14.54 ± 0.05 in the 30% (v/v) DMSO/H2O mixture. Argon was always passed over the solutions during the titrations. An Agilent Cary 8454 diode array spectrophotometer was used to record the UV–vis spectra at an interval of 200–800 nm. The path length was 2 cm. Spectrophotometric titrations were performed using a 0.1 M KOH titrant solution with 30% (v/v) DMSO on samples with 30% (v/v) DMSO containing HCl, KCl and the ligand at 20 μM concentration in the pH range 2.0–12.5 in the absence or in the presence of 1 or 0.5 equiv. Cu(II) ions. Proton dissociation constants (Ka) of the TSC ligands, the overall stability constants (β) of the Cu(II) complexes and the UV–vis spectra of the individual species were calculated by the computer program PSEQUAD [41] as was done in our previous works.

Series [2] is classed as physicochemical. Conditions: for logβ [CuLH−1] / logβ [CuL]+: Cu(II) complex of the named ligand, 30% (v/v) DMSO/H2O, T = 25.0 °C, I = 0.1 M (KCl); for pCu5.0: calculated at pH 5.0, cCu(II) = 20 µM; for pCu5.0 / pCu6.0 / pCu7.4: cligand = 20 µM; for pCu6.0: estimated at pH 6.0, cCu(II) = 20 µM; for pCu7.4: estimated at pH 7.4, cCu(II) = 20 µM. The method, then: as §4
The nature of series [3]: direct redox reaction of the Cu(II) complexes with GSH (UV–vis, anaerobic). It counts as physicochemical. Conditions: Cu(II) complex (25 µM) of the named ligand with GSH (1.25 mM), pH 7.4, anaerobic, 30% (v/v) DMSO/H2O, 25.0 °C. The method, then: The redox reaction of the Cu(II) complexes with GSH and ascorbic acid was studied at 25.0 ± 0.1 °C, at pH 7.40 (10 mM HEPES with 0.1 M KCl) on an Agilent Cary 8454 diode array spectrophotometer using a special, tightly closed tandem cuvette (Hellma Tandem Cell, 238-QS). The complex and the reducing agent were separated until the reaction was triggered. Both isolated pockets of the tandem cuvette were completely deoxygenated by bubbling argon for 10 min before mixing the reactants. Spectra were recorded before and then immediately after the mixing, and changes were followed till no further absorbance change was observed. The stock solutions of the reducing agents and the complexes were freshly prepared every day.
During the calculations, the absorbance (A)−time (t) curves were fitted and analyzed at the λmax of the complex. (A0 − Afinal) × e ^(−a×t) + Afinal equation was used where A0, Afinal and a parameters were refined and accepted at the minimal value of the weighted sum of squared residuals (difference between the measured and calculated absorbance values) at the given wavelength. Then observed rate constants (kobs) of the redox reaction were obtained from the data points of the simulated absorbance–time curves as the slope of the ln(A/A0) versus t plots.

The subject of series [4] is HCT-116 colon cancer cell line. On the set-up: method as in doi:10.1039/D0NJ01070G, PMID 34453218, PMID 33951554. The conditions noted are these: cited from earlier work.
The conditions of series [5]: cited from earlier work.
The conditions of series [6]: cited from earlier work. The source holds these as a separate data set.
Series [7] can be described thus: DPPH free radical scavenging assay. Conditions: for % Scavenging Effect: DPPH:compound = 1:1 ratio after 30 min, ethanol; for IC50: in ethanol, T = 25 °C, cDPPH = 50 µM, ccompound = 5−50 µM. The protocol:
The DPPH (Sigma-Aldrich) free radical scavenging capacity was studied at 25.0 ± 0.1 °C on an Agilent Cary 3500 spectrophotometer with tightly closed tandem cuvette according to our approach with some modifications. The stock solution of DPPH (100 µM) was prepared in ethanol, and 0.5 mL of this solution was added to one pocket of the cuvette and 0.5 mL of the tested compound in different concentrations in ethanol was added to another. The final concentration of the studied compounds was in the range 5–50 µM, where for DPPH concentration, it was always 50 µM. A standard compound Trolox (Sigma-Aldrich) was used as a positive control. The percentage of the antioxidant activity (AA), IC50 values (the concentration of compound at which it reduced 50% of DPPH) and Trolox equivalent antioxidant capacity (TEAC) were calculated.

Setting [8] is: 30% (v/v) DMSO/H2O, T = 25.0 °C, I = 0.1 M (KCl).

Results on six compounds are retold here after article PMC9822434, “Estradiol-Based Salicylaldehyde (Thio)Semicarbazones and Their Copper Complexes with Anticancer, Antibacterial and Antioxidant Activities” (Molecules, 2022).

Converted amounts (≈) assume the structure as drawn. Where two headings read alike, the source gives them in different places.

For `[Cl][Cu][Cl]` [CuCl2, reference compound], the minimum inhibitory concentration (MIC) with E. faecalis ATCC 29212 and with S. aureus ATCC 25928 was above 100 µM each time. Moreover, the IC50 in the series on A549, in the series with DU-145, in the series on MCF-7 KCR (24 h incubation time) and in the series with MCF-7 was above 20 µM each time. In addition, the “effect on cell viability (in words)” value with A549, in the series on DU-145, in the series with MCF-7 KCR and in the series on MCF-7 was “No toxic effect” throughout. In [1], the “DNA double-strand breaks (γH2AX) vs untreated control cells” value is on record as “None of these treatments caused a higher degree of DNA damage”.
Regarding `CN(C)C(=S)NN=Cc1cc2c(cc1O)CCC1C2CCC2(C)C(=O)CCC12` (stereo not drawn) [Me2-estrone-TSC, reference compound], the pKa in the series “physchem” is reported as 9.02 ± 0.03 ^4. In addition, in [2], the “pKa [CuL]+” value was 3.92 ^4, the “logβ [CuLH−1]” value is given as 9.44 ± 0.07 ^4, the “logβ [CuL]+” value is 13.36 ± 0.08 ^4 and the pCu5.0 is reported as 8.0. Moreover, in series [2], the pCu6.0 is on record as 9.7 and the pCu7.4 is 12.5 ^4. The kobs in [3] is recorded as 0.05 ^4 min^−1. Also, the IC50 in series [4] is 21 µM.
In the case of `CNC(=S)NN=Cc1cc2c(cc1O)CCC1C2CCC2(C)C(=O)CCC12` (stereo not drawn) [Me-estrone-TSC], in [2], the pCu5.0 is 7.7 and the pCu6.0 was 9.2. Also, in series [3], the kobs is recorded as 0.05 ^4 min^−1. Also, the IC50 in [4] is 25 µM. In series [5] (setting [8]), the “logβ [CuLH−1]” value is recorded as 9.66 ^3 and the “logβ [CuL]+” value is 13.64 ^3. Further, the pCu7.4 in [5] (pH 7.4, cCu(II) = 20 µM, cligand = 20 µM) is 11.9 ^3.
Take `NC(=O)N/N=C/c1ccccc1O` [SSC]: the pKa in series [6] (salicylaldehyde SC) is reported as 9.30.
On to `NC(=S)N/N=C/c1ccccc1O` [STSC, salicylaldehyde TSC, reference compound], for which, in series [7] (DPPH assay in ethanol, 25 °C), the “TEAC (Trolox equivalent antioxidant capacity)” value is reported as 0.6. Besides, the “% Scavenging Effect” value in series [7] (25 °C) came out at 23.4%. The compound further gave a half-inhibitory concentration (IC50) in [7] of 19 µM. Moreover, the pKa in series [6] (salicylaldehyde TSC) is listed as 8.84.
The compound `C[C@]12CC[C@@H]3c4cc(C=NNC(N)=O)c(O)cc4CC[C@H]3[C@@H]1CCC2O` (stereo partly drawn) [estradiol-SC, 2-[(3,17 Dihydroxy-estra-1,3,5(10)-triene-2-yl)methylene]Hydrazine-1-carboxamide] yielded a melting point of 238 °C. This compound also gave a pKa in the series “physchem” of 10.02 ± 0.03. In series [2], the “pKa [CuL]+” value was 6.48, the “logβ [CuLH−1]” value is given as 5.16 ± 0.03, the “logβ [CuL]+” value was 11.63 ± 0.03 and the pCu5.0 was 5.7. For the same compound, in series [2], the pCu6.0 is 6.3 and the pCu7.4 is 7.8. Moreover, in [3], the kobs result is “fast reaction”. Besides, in series [7] (25 °C), the “% Scavenging Effect” value stood at 6.5%. The same compound registered a concentration for half-maximal inhibition (IC50) in series [7] above 50 µM. Besides, in the series with E. faecalis ATCC 29212 (Enterococcus faecalis, ATCC29212), the MIC was above 100 µM. The compound further displayed an MIC with S. aureus ATCC 25928 of 50 µM (≈ 17.9 µg/mL). Also, 50 µM (≈ 17.9 µg/mL) was the least that counted as inhibitory against S. aureus ATCC 25928 (Staphylococcus aureus, ATCC25928) (MIC). In the series on A549 (Homo sapiens), the IC50 was above 20 µM. Further, in the series on A549, the “effect on cell viability (in words)” value is listed as “only slightly toxic”. For the same compound, the “effect on cell viability (in words)” value in the series on DU-145 was “neither the estradiol-SC nor the Cu(II)-estradiol-SC complex exhibit any harmful effect”. The IC50 in the series on DU-145 (Homo sapiens) was above 20 µM. The IC50 with MCF-7 KCR (Homo sapiens, MCF7, 24 h incubation time) is above 20 µM. Moreover, the “effect on cell viability (in words)” value in the series with MCF-7 KCR was “only slightly toxic”. The half-inhibitory concentration (IC50) in the series on MCF-7 (Homo sapiens, MCF7) was above 20 µM. The “effect on cell viability (in words)” value in the series on MCF-7 is given as “neither the estradiol-SC nor the Cu(II)-estradiol-SC complex exhibit any harmful effect”.
